From patent US12077503B2, “Substituted cyclic amides and their use as herbicides” (FMC CORPORATION, priority 2015, dated 2024)

How the values were obtained:
Assay type in all cases: in vivo
[1] = tested on: Galium (catchweed bedstraw, Galium aparine); experiment: Test C postemergence; details: scale 0 to 100, 0 no effect, 100 complete control
How it was run: (§1)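 Scores of 0 to 100 reflect visual comparison with control plants, where 0 means no effect and 100 complete control, made 13 to 15 d after treatment. Application was preemergence to seeds in loam-sand soil or postemergence to plants 2 to 18 cm tall in peat-based mix, using a surfactant-containing solvent formulation.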

[2] = tested on: blackgrass (Alopecurus myosuroides); experiment: Test C postemergence; details: scale 0 to 100, 0 no effect, 100 complete control
How it was run: as §1

[3] = tested on: chickweed (common chickweed, Stellaria media); experiment: Test C postemergence; details: scale 0 to 100, 0 no effect, 100 complete control
How it was run: as §1

[4] = tested on: crabgrass, large (large crabgrass, Digitaria sanguinalis); experiment: Test C postemergence; details: scale 0 to 100, 0 no effect, 100 complete control
How it was run: as §1

[5] = tested on: foxtail, giant (giant foxtail, Setaria faberii); experiment: Test C postemergence; details: scale 0 to 100, 0 no effect, 100 complete control
How it was run: as §1

[6] = tested on: nutsedge, yellow (yellow nutsedge, Cyperus esculentus); experiment: Test C postemergence; details: scale 0 to 100, 0 no effect, 100 complete control
How it was run: as §1

[7] = tested on: oat, wild (wild oat, Avena fatua); experiment: Test C postemergence; details: scale 0 to 100, 0 no effect, 100 complete control
How it was run: as §1

[8] = tested on: pigweed (Amaranthus retroflexus); experiment: Test C postemergence; details: scale 0 to 100, 0 no effect, 100 complete control
How it was run: as §1

[9] = tested on: ragweed (common ragweed, Ambrosia elatior); experiment: Test C postemergence; details: scale 0 to 100, 0 no effect, 100 complete control
How it was run: as §1

[10] = tested on: ryegrass, Italian (Italian ryegrass, Lolium multiflorum); experiment: Test C postemergence; details: scale 0 to 100, 0 no effect, 100 complete control
How it was run: as §1

[11] = tested on: soybean (Glycine max); experiment: Test C postemergence; details: scale 0 to 100, 0 no effect, 100 complete control
How it was run: as §1

[12] = tested on: waterhemp (common waterhemp, Amaranthus rudis); experiment: Test C postemergence; details: scale 0 to 100, 0 no effect, 100 complete control
How it was run: as §1

[13] = tested on: redstem (purple redstem, Ammannia coccinea); experiment: Test F flooded paddy test; details: Flood
Excerpt: (§2) Plant species in the flooded paddy test consisted of one stand of 9 or 10 water seeded rice seedlings (Rice, W. S. Jap, Oryza sativa cv. ‘Japonica—M202’ or Rice, W. S. Ind, ‘Indica’), and two stands of 3 or 4 transplanted rice seedlings (Oryza sativa cv. ‘Japonica—M202’), Monochoria (Monochoria vaginalis), sedge, umbrella (small-flower umbrella sedge, Cyperus difformis), hardstem bulrush (Scirpus juncoides), redstem (purple redstem, Ammannia coccinea), rice flatsedge (Cyperus iria), bearded sprangletop (Leptochloa fascicularis), barnyardgrass (Echinochloa crus-galli), waterplantain (common waterplantain, Alisma plantago-aquatica), and late watergrass (Echinochloa oryzicola) grown to the 2 to 2.5 leaf stage for testing. Potted plants were grown in a greenhouse with day/night temperature settings of 30/27° C., and supplemental balanced lighting was provided to maintain a 16-hour photoperiod. At time of treatment, test pots were flooded to 3 cm above the soil surface, treated by application of test compounds directly to the paddy water, and then maintained at that water depth for the duration of the test. Effects of treatments on rice and weeds were visually evaluated by comparison to untreated controls after 21 d. Plant response ratings, summarized in Table F, are based on a scale of 0 to 100 where 0 is no effect and 100 is complete control. A dash (-) response means no test result.

[14] = tested on: waterplantain (common waterplantain, Alisma plantago-aquatica); experiment: Test F flooded paddy test; details: Flood
Excerpt: as §2

CN1C[C@H](c2ccc(F)c(F)c2)[C@@H](C(=O)Nc2cccc(F)c2F)C1=O [Compound 639, (3S,4S)—N-(2,3-difluorophenyl)-4-(3,4-difluorophenyl)-1-methyl-2-oxo-3-pyrrolidinecarboxamide]
Plant response rating, Galium ([1]; 31 g ai/ha): 50
Plant response rating, Galium ([1]; 62 g ai/ha): 50
Plant response rating, Galium ([1]; 125 g ai/ha): 70
Plant response rating, Galium ([1]; 250 g ai/ha): 70
Plant response rating, Blackgrass ([2]; 31 g ai/ha): 0
Plant response rating, Blackgrass ([2]; 62 g ai/ha): 0
Plant response rating, Blackgrass ([2]; 125 g ai/ha): 5
Plant response rating, Blackgrass ([2]; 250 g ai/ha): 10
Plant response rating, Chickweed ([3]; 31 g ai/ha): 40
Plant response rating, Chickweed ([3]; 62 g ai/ha): 40
Plant response rating, Chickweed ([3]; 125 g ai/ha): 50
Plant response rating, Chickweed ([3]; 250 g ai/ha): 90
Plant response rating, Crabgrass, Large ([4]; 31 g ai/ha): 60
Plant response rating, Crabgrass, Large ([4]; 62 g ai/ha): 70
Plant response rating, Crabgrass, Large ([4]; 125 g ai/ha): 70
Plant response rating, Crabgrass, Large ([4]; 250 g ai/ha): 80
Plant response rating, Foxtail, Giant ([5]; 31 g ai/ha): 35
Plant response rating, Foxtail, Giant ([5]; 62 g ai/ha): 60
Plant response rating, Foxtail, Giant ([5]; 125 g ai/ha): 80
Plant response rating, Foxtail, Giant ([5]; 250 g ai/ha): 85
Plant response rating, Nutsedge, Yellow ([6]; 31 g ai/ha): 0
Plant response rating, Nutsedge, Yellow ([6]; 62 g ai/ha): 0
Plant response rating, Nutsedge, Yellow ([6]; 125 g ai/ha): 0
Plant response rating, Nutsedge, Yellow ([6]; 250 g ai/ha): 10
Plant response rating, Oat, Wild ([7]; 31 g ai/ha): 0
Plant response rating, Oat, Wild ([7]; 62 g ai/ha): 0
Plant response rating, Oat, Wild ([7]; 125 g ai/ha): 0
Plant response rating, Oat, Wild ([7]; 250 g ai/ha): 0
Plant response rating, Pigweed ([8]; 31 g ai/ha): 10
Plant response rating, Pigweed ([8]; 62 g ai/ha): 45
Plant response rating, Pigweed ([8]; 125 g ai/ha): 40
Plant response rating, Pigweed ([8]; 250 g ai/ha): 45
Plant response rating, Ragweed ([9]; 31 g ai/ha): 0
Plant response rating, Ragweed ([9]; 62 g ai/ha): 10
Plant response rating, Ragweed ([9]; 125 g ai/ha): 50
Plant response rating, Ragweed ([9]; 250 g ai/ha): 65
Plant response rating, Ryegrass, Italian ([10]; 31 g ai/ha): 0
Plant response rating, Ryegrass, Italian ([10]; 62 g ai/ha): 0
Plant response rating, Ryegrass, Italian ([10]; 125 g ai/ha): 5
Plant response rating, Ryegrass, Italian ([10]; 250 g ai/ha): 10
Plant response rating, Soybean ([11]; 31 g ai/ha): 0
Plant response rating, Soybean ([11]; 62 g ai/ha): 10
Plant response rating, Soybean ([11]; 125 g ai/ha): 15
Plant response rating, Soybean ([11]; 250 g ai/ha): 25
Plant response rating, Waterhemp ([12]; 31 g ai/ha): 10
Plant response rating, Waterhemp ([12]; 62 g ai/ha): 25
Plant response rating, Waterhemp ([12]; 125 g ai/ha): 30
Plant response rating, Waterhemp ([12]; 250 g ai/ha): 25
Plant response rating: Redstem ([13]; 32 g ai/ha): 0
Plant response rating: Redstem ([13]; 64 g ai/ha): 0
Plant response rating: Redstem ([13]; 125 g ai/ha): 0
Plant response rating: Redstem ([13]; 250 g ai/ha): 30
Plant response rating: Waterplantain ([14]; 32 g ai/ha): 80
Plant response rating: Waterplantain ([14]; 64 g ai/ha): 80
Plant response rating: Waterplantain ([14]; 125 g ai/ha): 98
Plant response rating: Waterplantain ([14]; 250 g ai/ha): 100
